Assays:
Assay type in all cases: biochemical
ADAM17 (TACE) = ADAM17 (TACE) (Homo sapiens, UniProt P78536); test: TACE fluorometric inhibition assay (Enzo kit BML-AK310); details: quenched fluorogenic peptide, ex/em 320/420 nm; read-out: TACE IC50 class
Description: (§1) The inhibitory activities of the compounds of the invention were assessed in 96-well microplate format using MMP1, MMP2, MMP9 and MMP13 colorimetric assay kits and TACE fluorometric assay kit from Enzo Life Sciences, Inc. The inhibitory effect of the compounds of the invention on ADAM10 activity were evaluated in 96-well microplate format using fluorometric assay from AnaSpec, Inc.
The TACE Fluorometric Drug Discovery Kit (catalog #BML-AK310) is a complete assay system designed to screen ADAM17 (TACE) inhibitors using a quenched fluorogenic peptide: Mca-PLAQAV-Dpa-RSSSR—NH2. Mca fluorescence is quenched by the Dpa group until cleavage by proteases separates the two moieties leading to an increase in Mca fluorescence.
The inhibitory activity of the compounds of the invention against TACE was tested according to the manufacturer's assay protocol and the fluorescence was monitored at excitation/emission wavelengths=320 nm/420 nm using Tecan Infinite® 200 Pro F Nano^+ microplate reader.
(§2) The normalized values were analyzed using GraphPadPrism 9 for Windows (GraphPad Software, San Diego, CA, USA) software by plotting inhibition curves and determining the IC50 values (in nM).

MMP13 = molecular target: T1, MMP13 (Homo sapiens, UniProt P45452); test: MMP-13 colorimetric inhibition assay (Enzo kit BML-AK412); details: thiopeptide substrate, absorbance 415 nm; read-out: MMP 13 IC50 class
T1 construct: purchased Enzo Life Sciences, Inc. BML-AK412
Description: as §1
(§3) The MMP-13 Colorimetric Drug Discovery Kit (catalog #BML-AK412) is a complete assay system designed to screen inhibitors of matrix metalloproteinase-13 using a thiopeptide as a chromogenic substrate (Ac-PLG-[2-mercapto-4-methylpentanoyl]-LG-OC2H5). The MMP cleavage site peptide bond is replaced by a thioester bond in the thiopeptide. Hydrolysis of this bond by an MMP produces a sulfhydryl group, which reacts with DTNB [5,5′-dithiobis(2-nitrobenzoic acid), Ellman's reagent] to form 2-nitro-5-thiobenzoic acid, that can be detected spectrophotometrically.
(§4) The inhibitory activities of the compounds of the invention against MMP1, MMP2, MMP9 and MMP13 were tested according to the manufacturer's assay protocols and the absorbance at 415 nm was monitored using the Tecan Infinite® 200 Pro F Nano^+ microplate reader.
as §2

MMP2 = molecular target: T2, MMP2 (Homo sapiens, UniProt P08253); test: MMP-2 colorimetric inhibition assay (Enzo kit BML-AK408); details: thiopeptide substrate, absorbance 415 nm; read-out: MMP 2 IC50 class
T2 sequence (P08253 110-660): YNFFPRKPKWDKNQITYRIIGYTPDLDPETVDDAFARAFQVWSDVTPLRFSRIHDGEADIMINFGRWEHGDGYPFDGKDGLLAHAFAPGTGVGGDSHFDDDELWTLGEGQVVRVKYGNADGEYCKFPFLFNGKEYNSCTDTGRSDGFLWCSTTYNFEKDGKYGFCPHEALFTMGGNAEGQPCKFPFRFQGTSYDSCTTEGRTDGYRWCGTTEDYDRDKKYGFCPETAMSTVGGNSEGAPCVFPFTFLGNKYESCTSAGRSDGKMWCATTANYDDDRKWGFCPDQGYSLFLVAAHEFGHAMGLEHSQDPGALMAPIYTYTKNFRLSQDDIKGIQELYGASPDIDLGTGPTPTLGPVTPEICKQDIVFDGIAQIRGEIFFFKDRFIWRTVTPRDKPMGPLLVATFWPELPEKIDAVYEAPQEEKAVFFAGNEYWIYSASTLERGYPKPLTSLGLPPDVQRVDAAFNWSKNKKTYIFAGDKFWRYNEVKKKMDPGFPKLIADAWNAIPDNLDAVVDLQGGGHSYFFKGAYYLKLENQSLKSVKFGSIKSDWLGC
Description: as §1
as §3, with “MMP-2” for “MMP-13”, “#BML-AK408)” for “#BML-AK412)”, “screen MMP-2” for “screen”, “inhibitors” for “inhibitors of matrix metalloproteinase-13”
as §4, §2

MMP1 = molecular target: T3, MMP1 (Homo sapiens, UniProt P03956); test: MMP-1 colorimetric inhibition assay (Enzo kit BML-AK404); details: thiopeptide substrate, absorbance 415 nm; read-out: MMP 1 IC50 class
T3 sequence (P03956 100-269 limits assumed): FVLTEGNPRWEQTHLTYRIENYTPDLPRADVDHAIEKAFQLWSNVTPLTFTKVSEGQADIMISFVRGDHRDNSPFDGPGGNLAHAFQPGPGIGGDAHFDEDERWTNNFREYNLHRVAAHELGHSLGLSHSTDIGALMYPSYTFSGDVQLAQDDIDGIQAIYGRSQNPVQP
Description: as §1
as §3, with “MMP-1” for “MMP-13”, “#BML-AK404)” for “#BML-AK412)”, “metalloproteinase-1” for “metalloproteinase-13”
as §4, §2

MMP9 = MMP9 (Homo sapiens, UniProt P14780); test: MMP-9 colorimetric inhibition assay (Enzo kit BML-AK410); details: thiopeptide substrate, absorbance 415 nm; read-out: MMP 9 IC50 class
MMP9, sequence (P14780 94-707): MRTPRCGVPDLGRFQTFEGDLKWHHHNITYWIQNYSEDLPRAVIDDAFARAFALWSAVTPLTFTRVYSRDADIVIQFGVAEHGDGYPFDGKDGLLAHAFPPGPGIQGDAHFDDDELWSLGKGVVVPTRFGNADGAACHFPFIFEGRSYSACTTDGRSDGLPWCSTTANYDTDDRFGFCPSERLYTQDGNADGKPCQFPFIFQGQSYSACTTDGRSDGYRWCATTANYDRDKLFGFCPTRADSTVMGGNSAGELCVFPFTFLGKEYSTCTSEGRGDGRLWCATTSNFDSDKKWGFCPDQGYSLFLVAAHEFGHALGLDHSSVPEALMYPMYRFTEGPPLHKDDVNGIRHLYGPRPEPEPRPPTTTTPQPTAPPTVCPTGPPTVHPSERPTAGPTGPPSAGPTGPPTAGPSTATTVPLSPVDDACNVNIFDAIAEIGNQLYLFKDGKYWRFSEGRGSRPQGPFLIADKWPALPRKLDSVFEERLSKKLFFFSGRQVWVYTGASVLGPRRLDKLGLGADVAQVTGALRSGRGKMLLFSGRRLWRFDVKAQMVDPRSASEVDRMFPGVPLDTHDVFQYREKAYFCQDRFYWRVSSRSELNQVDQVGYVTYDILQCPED
Description: as §1
as §3, with “MMP-9” for “MMP-13”, “#BML-AK410)” for “#BML-AK412)”, “metalloproteinase-9” for “metalloproteinase-13”
as §4, §2

ADAM17 (TACE), sequence (P78536 215-477 limits assumed): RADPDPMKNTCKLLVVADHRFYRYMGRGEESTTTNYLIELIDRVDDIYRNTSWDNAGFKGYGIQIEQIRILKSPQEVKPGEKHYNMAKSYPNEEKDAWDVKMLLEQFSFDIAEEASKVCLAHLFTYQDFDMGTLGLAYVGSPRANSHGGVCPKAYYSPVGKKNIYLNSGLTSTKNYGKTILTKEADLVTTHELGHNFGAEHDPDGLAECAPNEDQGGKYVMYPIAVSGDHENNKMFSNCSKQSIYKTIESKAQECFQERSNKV

| Compound | IC50 (ADAM17 (TACE)) | IC50 (MMP13) | IC50 (MMP2) | IC50 (MMP1) | IC50 (MMP9) |
| --- | --- | --- | --- | --- | --- |
| CCOC(=O)N1[C@@H]2CC[C@H]1[C@H](C(=O)NO)N(S(=O)(=O)N1CCC(Oc3ccnc(C(F)(F)F)c3)CC1)C2 [Example 50, ethyl (1S,2R,5R)-2-(hydroxy-carbamoyl)-3-((4-((2-(trifluoro-methyl)pyridin-4-yl)oxy)-piperidin-1-yl)-sulfonyl)-3,8-diazabicyclo-[3.2.1]octane-8-carboxylate] | 1 to 10 µM | 0.05 to 1 µM | 0.05 to 1 µM | > 10 µM | 0.05 to 1 µM |
| CN(C)C(=O)CN1[C@@H]2CC[C@H]1[C@H](C(=O)NO)N(S(=O)(=O)c1ccc(Oc3ccc(F)cc3)nc1)C2 [Example 51, (1S,2R,5R)-8-(2-(dimethylamino)-2-oxoethyl)-3-((6-(4-fluorophenoxy)pyridin-3-yl)sulfonyl)-N-hydroxy-3,8-diazabicyclo[3.2.1]octane-2-carboxamide] | > 10 µM | < 0.05 µM | < 0.05 µM | 1 to 10 µM | 0.05 to 1 µM |
| O=C(NO)[C@H]1[C@@H]2CC[C@H](CN1S(=O)(=O)c1ccc(Oc3ccc(F)cc3)nc1)N2CC(=O)N1CCCC1 [Example 52, (1S,2R,5R)-3-((6-(4-fluorophenoxy)pyridin-3-yl)sulfonyl)-N-hydroxy-8-(2-oxo-2-(pyrrolidin-1-yl)ethyl)-3,8-diazabicyclo[3.2.1]octane-2-carboxamide] | > 10 µM | < 0.05 µM | < 0.05 µM | 1 to 10 µM | 0.05 to 1 µM |
| CC(C)Oc1ccc(Oc2ccc(S(=O)(=O)N3C[C@H]4CC[C@@H]([C@@H]3C(=O)NO)N4C(=O)C(C)C)cn2)cc1 [Example 60, (1S,2R,5R)-N-hydroxy-8-isobutyry1-3-((6-(4-isopropoxy-phenoxy)pyridin-3-yl)sulfonyl)-3,8-diazabicyclo-[3.2.1]octane-2-carboxamide] | > 10 µM | < 0.05 µM | < 0.05 µM | 1 to 10 µM | < 0.05 µM |
| CC(C)Oc1ccc(Oc2ccc(S(=O)(=O)N3C[C@H]4CC[C@@H]([C@@H]3C(=O)NO)N4C(=O)C(C)(C)C)cn2)cc1 [Example 61, (1S,2R,5R)-N-hydroxy-3-((6-(4-isopropoxyphenoxy)-pyridin-3-yl)-sulfonyl)-8-pivaloyl-3,8-diazabicyclo-[3.2.1]octane-2-carboxamide] | > 10 µM | < 0.05 µM | < 0.05 µM | 1 to 10 µM | 0.05 to 1 µM |
| CC(=O)N1[C@@H]2CC[C@H]1[C@H](C(=O)NO)N(S(=O)(=O)N1CCC(Oc3ccnc(C(F)(F)F)c3)CC1)C2 [Example 64, (1S,2R,5R)-8-acetyl-N-hydroxy-3-((4-((2-(trifluoromethyl)-pyridin-4-yl)oxy)-piperidin-1-yl)-sulfonyl)-3,8-diazabicyclo[3.2.1]-octane-2-carboxamide] | 1 to 10 µM | 0.05 to 1 µM | 0.05 to 1 µM | 1 to 10 µM | 0.05 to 1 µM |
| O=C(NO)[C@H]1[C@@H]2CC[C@H](CN1S(=O)(=O)c1ccc(Oc3ccc(F)cc3)nc1)N2C(=O)N1CCOCC1 [Example 68, (1S,2R,5R)-3-((6-(4-fluorophenoxy)pyridin-3-yl)sulfonyl)-N-hydroxy-8-(morpholine-4-carbonyl)-3,8-diazabicyclo[3.2.1]octane-2-carboxamide] | 1 to 10 µM | < 0.05 µM | < 0.05 µM | 1 to 10 µM | 0.05 to 1 µM |
| CN1CCN(C(=O)N2[C@@H]3CC[C@H]2[C@H](C(=O)NO)N(S(=O)(=O)c2ccc(Oc4ccc(F)cc4)nc2)C3)CC1 [Example 69, (1S,2R,5R)-3-((6-(4-fluorophenoxy)pyridin-3-yl)sulfonyl)-N-hydroxy-8-(4-methyl-piperazine-1-carbonyl)-3,8-diazabicyclo-[3.2.1]octane-2-carboxamide] | 1 to 10 µM | 0.05 to 1 µM | < 0.05 µM | 1 to 10 µM | 0.05 to 1 µM |
| CC(C)Oc1ccc(Oc2ccc(S(=O)(=O)N3C[C@H]4CC[C@@H]([C@@H]3C(=O)NO)N4C(=O)N3CCOCC3)cn2)cc1 [Example 71, (1S,2R,5R)-N-hydroxy-3-((6-(4-isopropoxyphenoxy)-pyridin-3-yl)sulfonyl)-8-(morpholine-4-carbonyl)-3,8-diazabicyclo[3.2.1]-octane-2-carboxamide] | > 10 µM | < 0.05 µM | < 0.05 µM | 1 to 10 µM | 0.05 to 1 µM |
| CCN1CCC(Oc2ccc(S(=O)(=O)N3C[C@H]4CC[C@@H]([C@@H]3C(=O)NO)N4C(=O)OCCOC)cn2)CC1 [Example 74, 2-methoxyethyl (1S,2R,5R)-3-((6-((1-ethylpiperidin-4-yl)oxy)pyridin-3-yl)sulfonyl)-2-(hydroxycarbamoyl)-3,8-diazabicyclo[3.2.1]octane-8-carboxylate] | > 10 µM | > 10 µM | > 10 µM | > 10 µM | 1 to 10 µM |
| COCCOC(=O)N1[C@@H]2CC[C@H]1[C@H](C(=O)NO)N(S(=O)(=O)c1ccc(OC3CCN(C(C)C)CC3)nc1)C2 [Example 75, 2-methoxyethyl (1S,2R,5R)-2-(hydroxycarbamoyl)-3-((6-((1-isopropyl-piperidin-4-yl)oxy)-pyridin-3-yl)-sulfonyl)-3,8-diaza-bicyclo[3.2.1]octane-8-carboxylate] | 1 to 10 µM | 0.05 to 1 µM | 0.05 to 1 µM | 1 to 10 µM | 0.05 to 1 µM |
| COCCOC(=O)N1[C@@H]2CC[C@H]1[C@H](C(=O)NO)N(S(=O)(=O)N1CCN(Cc3ccc(Cl)cc3)CC1)C2 [Example 76, 2-methoxyethyl (1S,2R,5R)-3-((4-(4-chlorobenzyl)piperazin-1-yl)sulfonyl)-2-(hydroxycarbamoyl)-3,8-diazabicyclo[3.2.1]octane-8-carboxylate] | 1 to 10 µM | 0.05 to 1 µM | 0.05 to 1 µM | > 10 µM | 0.05 to 1 µM |
